Consider one molecule from EPA's ToxRefDB 2.

Series [1] deals with rabbit. As to conditions: Sub-acute repeat dose toxicity; Injection; Intravenous; dose end: 5 day; group: systemic; systemic / in life observation / clinical signs / altered breathing rate + systemic / in life observation / clinical signs / labored ….
The test system of a further series is rat. As to conditions: Sub-acute repeat dose toxicity, Injection, Intravenous, dose end: 5 day, group: systemic.
The subject of series [2] is rabbit. As to conditions: Prenatal developmental toxicity study, Injection, Intravenous, dose end: 18 GD.
[3] abbreviates: systemic / pathology microscopic / ovary / degeneration + systemic / clinical chemistry / albumin / albumin + systemic / clinical chemistry….
Setting [4] is: group: developmental, developmental / developmental malformation / bone / incomplete ossification + systemic / in life observation / body weight / fetal weight.
Where [5] appears, read: group: maternal, systemic / in life observation / body weight / body weight + systemic / in life observation / body weight / body weight gain + systemic / in….

Some results are limits rather than exact numbers.

What is called LOAEL is the lowest dose or exposure tested at which an adverse effect was seen. As usually defined, the NOAEL is the highest dose or exposure tested at which no adverse effect was seen. On to `NC(N)=NC(=O)c1cnn(-c2cccc3ncccc23)c1C1CC1` [Zoniporide], for which the LOAEL in the series on rabbit [1] was above 250 mg/kg/day; in the series with rat (setting [3]) it was above 250 mg/kg/day; in the series on rabbit [2] (setting [4]), above 100 mg/kg/day; with rabbit [2] (setting [5]) it was above 100 mg/kg/day. Further, the figures for the NEL in the series with rabbit [1], in the series on rat (systemic / pathology microscopic / blood vessel / inflammation + systemic / pathology microscopic / blood vessel / necrosis) and in the series on rabbit [2] (setting [5]) were 50 mg/kg/day, below 25 mg/kg/day and 30 mg/kg/day, respectively. Moreover, the NOAEL in the series with rabbit [1] was at least 250 mg/kg/day; with rat (setting [3]) it was at least 250 mg/kg/day; in the series on rabbit [2] (setting [4]) it was at least 100 mg/kg/day; in the series on rabbit [2] (setting [5]), at least 100 mg/kg/day. For the same molecule, the LEL in the series with rabbit [2] (setting [4]) and with rabbit [2] (setting [5]) was 100 mg/kg/day throughout.
